The record followed here is PMC11325214 (2024).

A word on the EC50: it is the concentration at which the effect is half-maximal.

The test system of the assay is L-Procaine aptamer (DNA, aptamer) GGCGACAAGGAAAATCCTTCAACGAAGGTGGGTGGCC
The experiment in a line: E-AB square wave voltammetry, 3D-printed gold electrode cell. The conditions noted are these: undiluted human serum; in serum; immobilised aptamer; apparent; Hill fit.

As to `CCN(CC)CCOC(=O)c1ccc(N)cc1`, the half-maximal effective concentration (EC50) came to 59.2 mM.
